Experiments:
Type in all cases: cell-based, human
SH-SY5Y cells = assay: Rotenone-induced α-synuclein proteotoxicity in SH-SY5Y cells; settings: SH-SY5Y expressing α-synuclein-GFP; pre-treatment 4 h (0.312-2.5 μM), rotenone 1.125 μM 24 h; approximately 30% without compounds
Experimental: Fig. 3 (A) HEK293 cells were treated with RUN compounds at a concentration of 7.5 μM for 16 hours. DMSO was used as a vehicle control. Proteasome chymotrypsin-like activity was measured in cell lysates at 37 °C. Data came from three biological replicates (n = 3). Statistical analysis was done using ratio paired t-tests corrected for multiple comparisons with Holm–Šídák's method (α = 0.05). *p < 0.05. Detailed results of the analysis are shown in SI Table S7. (B) RUN-89 protects against polyQ-mediated toxicity in an NFE2L1-dependent manner. HCT116 parental cells (WT) and two independent DDI2 knockout clones (KO 04 and KO 11), in which NFE2L1 activation is impaired, were transiently transfected with plasmids encoding non-aggregating EGFP-HttQ23 or aggregation-prone EGFP-HttQ74. Cells were treated with 1 or 3 μM RUN-89 for 48 hours, and viability was measured using the alamarBlue assay. […] Data are shown as the Geomean ± GeoSD from four independent biological replicates (n = 4). […] (C left) The protective effect of RUN compounds was assessed by rotenone-induced α-synuclein proteotoxicity in SH-SY5Y cells, which mimics the PD-like phenotype. […]
A second stress assay was performed using rotenone, a mitochondrial complex I inhibitor. […] After 4 hours, rotenone (1.125 μM) was added and one day later the viability of the cells was measured. […]

[1] = system: HCT116 cells expressing EGFP-HttQ74; assay: PolyQ toxicity assay (EGFP-HttQ74, alamarBlue) in HCT116 WT and DDI2 KO cells; settings: 48 h
Experimental: Fig. 3 (A) HEK293 cells were treated with RUN compounds at a concentration of 7.5 μM for 16 hours. DMSO was used as a vehicle control. Proteasome chymotrypsin-like activity was measured in cell lysates at 37 °C. Data came from three biological replicates (n = 3). Statistical analysis was done using ratio paired t-tests corrected for multiple comparisons with Holm–Šídák's method (α = 0.05). *p < 0.05. Detailed results of the analysis are shown in SI Table S7. […] HCT116 parental cells (WT) and two independent DDI2 knockout clones (KO 04 and KO 11), in which NFE2L1 activation is impaired, were transiently transfected with plasmids encoding non-aggregating EGFP-HttQ23 or aggregation-prone EGFP-HttQ74. Cells were treated with 1 or 3 μM RUN-89 for 48 hours, and viability was measured using the alamarBlue assay. […] Data are shown as the Geomean ± GeoSD from four independent biological replicates (n = 4). Statistical analysis was performed on log2-transformed values using two-way repeated-measures ANOVA followed by Šídak's multiple comparison test. (C right) Parental SH-SY5Y cells (without α-synuclein expression) were treated in the same manner. (C left) The protective effect of RUN compounds was assessed by rotenone-induced α-synuclein proteotoxicity in SH-SY5Y cells, which mimics the PD-like phenotype. Cells were pre-treated with increasing concentrations of RUN compounds (0.312, 0.625, 1.25, and 2.5 μM) for 4 hours and then rotenone (1.125 μM) treatment was done for 24 hours.
To further evaluate the protective capacity of RUN-89 in a polyQ aggregation model, we transiently transfected HCT116 parental cells (wt) and DDI2 knockout clones (KO4 and KO11) with plasmids encoding either a non-aggregating EGFP-HttQ23 or an aggregation-prone EGFP-HttQ74 construct. This model is widely used to study Huntington's disease (HD), a prototypical polyglutamine expansion disorder caused by expanded CAG repeats in the huntingtin gene.[67–69] […] Cells were treated with increasing concentrations of RUN-89 (1 and 3 μM) for 48 h, and viability was assessed using the alamarBlue assay (Fig. 3B). […]

NFE2L1 pathway = assay: 3×PSMA4-ARE-LUC reporter with or without N-acetyl-L-cysteine (NAC); settings: HEK293, 5 μM, 16 h
From the text: We next examined whether the selected RUN compounds activate the NFE2L1 pathway in a stress-independent manner, while preserving normal ubiquitin-dependent proteasomal degradation. This distinction is crucial, as the therapeutic benefit of NFE2L1 activation lies in its ability to alleviate proteotoxic stress and target disease-related proteins for degradation without compromising normal proteostasis. To assess this, U2OS cells stably expressing the short-lived fluorescent reporter Ub-G76V-GFP were treated with various concentrations of RUN compounds. […] We also examined whether compound-induced activation of NFE2L1 could be attributed to the generation of reactive oxygen species (ROS). To test this, the 3×PSMA4-ARE-LUC reporter assay was performed in the presence or absence of the antioxidant N-acetyl-L-cysteine (NAC). A decrease in reporter activity upon NAC treatment would indicate pathway activation through oxidative stress. […]
To determine whether RUN compounds activate the NFE2L1 pathway via reactive oxygen species (ROS) generation or through Keap1-NRF2 pathway crosstalk, we used the 3xPSMA4-ARE-LUC dual reporter assay in HEK293 cells. […] A reduction in luminescence signal upon NAC co-treatment would indicate that the compound activates the reporter via ROS-mediated mechanism or Keap1-NRF2-dependent oxidative/electrophilic stress. […]

Row | SMILES | Cell viability after rotenone treatment (SH-SY5Y cells) | Protective effect in DDI2-deficient clones expressing HttQ74 ([1]; 1 and 3 μM) | Survival of wild-type cells expressing HttQ74 ([1]; 1 and 3 μM) | Viability of EGFP-HttQ74 cells (mean), KO 04, 1 μM ([1]; HCT116 DDI2-/- KO 04, 1 μM, alamarBlue) | Viability of EGFP-HttQ74 cells (mean), KO 04, 3 μM ([1]; HCT116 DDI2-/- KO 04, 3 μM, alamarBlue) | Viability of EGFP-HttQ74 cells (mean), KO 11, 1 μM ([1]; HCT116 DDI2-/- KO 11, 1 μM, alamarBlue) | Viability of EGFP-HttQ74 cells (mean), KO 11, 3 μM ([1]; HCT116 DDI2-/- KO 11, 3 μM, alamarBlue) | Viability of EGFP-HttQ74 cells (mean), WT, 1 μM ([1]; HCT116 WT, 1 μM, alamarBlue) | Viability of EGFP-HttQ74 cells (mean), WT, 3 μM ([1]; HCT116 WT, 3 μM, alamarBlue) | NFE2L1 reporter activation in the presence of NAC (NFE2L1 pathway)
1 | COc1ccc(/C=C2\CC(NC(=O)C3CCCC3)C/C(=C\c3ccc(OC)c(OC)c3)C2=O)cc1OC (stereo not shown) [RUN-89] | up to 70% | strongly reduced | significantly improved survival | 41.44 | 16.49 | 59.5 | 37.35 | 72.36 | 79.66 | 
2 | COc1ccc(/C=C2\CC(NC(=O)c3ccccn3)C/C(=C\c3ccc(OC)c(OC)c3)C2=O)cc1OC (stereo not shown) [RUN-94] |  |  |  |  |  |  |  |  |  | retained its activity

Reference: publication PMC12606464, “Investigating NFE2L1 activators for targeted protein aggregate clearance: a follow-up study” (RSC Medicinal Chemistry, 2025)
